Source: US10188642B2, “Pharmacologically active compounds” (Cancer Research Technology Limited, priority 2012, dated 2019)
Read-outs that look alike come from different tables or passages of the source.

Target: full length MPS1 (Homo sapiens (Human), UniProt P33981)
Test: Measurement of inhibition of MPS1 kinase (Caliper EZ reader mobility shift assay)
Type: biochemical
Protocol: Measurement of Inhibition of MPS1 Kinase
(5 μM), ATP(10 μM), either DMSO (1% v/v) or the test compound (in the range 0.25 nM-100 μM in 1% DMSO) and assay buffer (50 mM HEPES (pH 7.0), 0.02% NaN3, 0.01% BSA, 0.1 mM Orthovandate, […], 1 μM DTT, Roche protease inhibitor). The reaction was carried out for 60 min at room temperature and stopped by the addition of buffer (10 μl) containing 20 mM EDTA, 0.05% (v/v) Brij-35, in 0.1M HEPES-buffered saline (Free acid, Sigma, UK). The plate was read on a Caliper EZ reader II (Caliper Life Sciences).
The reader provides a Software package (‘Reviewer’) which converts the peak heights into % conversion by measuring both product and substrate peak and also allows selection of control well which represent 0% and 100% inhibition respectively. The % inhibition of the compounds is calculated relative to the means of selected control wells. IC50s are determined by testing the compounds at a range of concentrations from 0.25 nM-100 μM. The % inhibitions at each concentration are then fitted to a 4 parameter logistic fit: y=(a+((b−a)/(1+((c/x^d)))) where a=asym min, b=asym max, c=IC50 and d=hill coefficient

[1] = full length MPS1 12.5 nM or 3 nM, H236 peptide 5 μM, ATP 10 μM, 60 min at room temperature, read-out: MPS1 IC50

Sequence of full length MPS1 (P33981 whole entry): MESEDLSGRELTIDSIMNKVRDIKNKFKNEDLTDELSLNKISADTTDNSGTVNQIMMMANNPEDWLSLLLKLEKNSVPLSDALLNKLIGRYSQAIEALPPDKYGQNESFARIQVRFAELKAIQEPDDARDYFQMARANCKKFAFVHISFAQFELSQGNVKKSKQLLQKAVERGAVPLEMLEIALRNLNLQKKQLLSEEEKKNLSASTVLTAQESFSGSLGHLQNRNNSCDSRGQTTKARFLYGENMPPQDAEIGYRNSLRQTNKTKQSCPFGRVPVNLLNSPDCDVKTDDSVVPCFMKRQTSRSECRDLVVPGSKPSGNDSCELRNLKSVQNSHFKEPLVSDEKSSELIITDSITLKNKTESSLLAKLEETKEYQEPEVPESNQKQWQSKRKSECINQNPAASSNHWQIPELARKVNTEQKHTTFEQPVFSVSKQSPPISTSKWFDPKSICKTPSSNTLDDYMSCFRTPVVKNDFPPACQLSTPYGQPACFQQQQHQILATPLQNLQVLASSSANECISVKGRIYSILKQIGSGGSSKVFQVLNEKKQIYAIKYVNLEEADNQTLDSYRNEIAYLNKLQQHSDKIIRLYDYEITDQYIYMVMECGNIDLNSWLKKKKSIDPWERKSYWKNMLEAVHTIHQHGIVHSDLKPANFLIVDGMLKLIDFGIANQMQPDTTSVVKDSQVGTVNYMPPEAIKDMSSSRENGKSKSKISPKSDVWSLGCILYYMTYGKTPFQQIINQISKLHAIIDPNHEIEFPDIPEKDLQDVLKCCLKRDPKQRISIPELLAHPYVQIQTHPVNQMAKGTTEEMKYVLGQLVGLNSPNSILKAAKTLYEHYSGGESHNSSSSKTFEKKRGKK

| Compound | IC50 [1] [nM] | IC50 [nM] |
| --- | --- | --- |
| CNC(=O)c1ccc2cnc(Nc3ccc(-c4cnn(C)c4)cc3OC)cc2n1 [Example 108, 7-(2-Methoxy-4-(1-methyl-1H-pyrazol-4-yl)phenylamino)-N-methyl-1,6-naphthyridine-2-carboxamide] | 7 |  |
| COCCn1cc(-c2ccc3cnc(Nc4ccc(-c5cnn(C)c5CO)cc4OC)cc3c2)cn1 [Example 32, (4-(3-Methoxy-4-((6-(1-(2-methoxyethyl)-1H-pyrazol-4-yl)isoquinolin-3-yl)amino)phenyl)-1-methyl-1H-pyrazol-5-yl)methanol] | 3 |  |
| COc1cc(-c2cnc(C)n2C)ccc1Nc1cc2cc(-c3cnn(CC(O)CO)c3)ccc2cn1 (racemic) [Example 109, Racemic 3-(4-(3-((4-(1,2-Dimethyl-1H-imidazol-5-yl)-2-methoxyphenyl)amino)isoquinolin-6-yl)-1H-pyrazol-1-yl)propane-1,2-diol] |  | 3 |
